# Columns and labels:
# [1] = target: T1, AtGH3.6 (Arabidopsis thaliana, UniProt Q9LSQ4); assay: crystal structure with AMP and Asp; MST; type: binding
# T1 construct: gene GH3.6
# T1 sequence (Q9LSQ4 1-612): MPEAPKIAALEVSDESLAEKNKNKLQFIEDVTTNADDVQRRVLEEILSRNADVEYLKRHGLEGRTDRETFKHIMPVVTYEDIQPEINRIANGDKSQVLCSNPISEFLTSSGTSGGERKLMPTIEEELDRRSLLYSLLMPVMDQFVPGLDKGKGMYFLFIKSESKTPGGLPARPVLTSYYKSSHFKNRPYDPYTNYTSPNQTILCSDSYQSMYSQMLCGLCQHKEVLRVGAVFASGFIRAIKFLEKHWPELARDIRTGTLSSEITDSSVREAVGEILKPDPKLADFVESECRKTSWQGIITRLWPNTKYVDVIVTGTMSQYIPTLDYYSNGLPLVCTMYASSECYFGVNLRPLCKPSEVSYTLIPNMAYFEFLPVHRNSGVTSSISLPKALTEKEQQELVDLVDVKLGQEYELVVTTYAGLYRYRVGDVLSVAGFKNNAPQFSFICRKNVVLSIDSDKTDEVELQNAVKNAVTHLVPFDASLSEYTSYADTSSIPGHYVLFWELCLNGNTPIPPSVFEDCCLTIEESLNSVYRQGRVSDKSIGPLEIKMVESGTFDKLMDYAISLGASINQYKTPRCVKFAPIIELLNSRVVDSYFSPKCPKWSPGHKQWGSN
# [2] = target: T1, AtGH3.6; assay: MST; type: binding
# [3] = target: T2, UGT74D1 (Arabidopsis thaliana, UniProt Q9SKC5); assay: bacterial lysate glucosylation assay, HPLC-MS/MS; type: cell-based
# T2 construct: recombinant AtUGT74D1 in E. coli lysate
# T2 sequence (Q9SKC5 1-456): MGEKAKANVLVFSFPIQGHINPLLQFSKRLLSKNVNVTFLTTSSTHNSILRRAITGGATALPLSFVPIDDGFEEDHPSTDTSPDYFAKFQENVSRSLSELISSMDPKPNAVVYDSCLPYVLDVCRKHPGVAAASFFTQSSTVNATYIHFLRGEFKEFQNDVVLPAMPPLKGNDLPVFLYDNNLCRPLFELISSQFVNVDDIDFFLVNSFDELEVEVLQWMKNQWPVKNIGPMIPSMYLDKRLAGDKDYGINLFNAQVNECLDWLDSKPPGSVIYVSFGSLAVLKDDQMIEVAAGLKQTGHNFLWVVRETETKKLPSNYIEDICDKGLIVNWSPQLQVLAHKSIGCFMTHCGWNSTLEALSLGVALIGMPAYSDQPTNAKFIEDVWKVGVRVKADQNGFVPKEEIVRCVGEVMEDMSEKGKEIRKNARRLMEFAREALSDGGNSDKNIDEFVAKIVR
# [4] = target: T3, UGT84B1 (Arabidopsis thaliana, UniProt O22182); assay: bacterial lysate glucosylation assay, HPLC-MS/MS; type: cell-based
# T3 construct: recombinant AtUGT84B1 in E. coli lysate
# T3 sequence (O22182 1-456): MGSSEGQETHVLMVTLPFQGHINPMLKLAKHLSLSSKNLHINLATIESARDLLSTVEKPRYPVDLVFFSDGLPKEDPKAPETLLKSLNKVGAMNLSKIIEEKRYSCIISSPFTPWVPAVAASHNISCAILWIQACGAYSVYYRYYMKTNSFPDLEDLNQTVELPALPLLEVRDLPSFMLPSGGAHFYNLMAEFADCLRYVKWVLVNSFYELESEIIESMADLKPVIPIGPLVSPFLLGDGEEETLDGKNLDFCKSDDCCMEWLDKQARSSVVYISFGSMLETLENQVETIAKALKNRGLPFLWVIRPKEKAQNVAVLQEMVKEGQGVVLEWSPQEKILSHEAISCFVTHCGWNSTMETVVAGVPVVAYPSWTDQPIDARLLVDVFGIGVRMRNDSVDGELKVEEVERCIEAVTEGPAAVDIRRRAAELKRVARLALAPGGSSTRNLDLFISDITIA
# [5] = target: T1, AtGH3.6; assay: MST; also conjugated by AtGH3.[…] in bacterial lysate assay; type: binding
smiles,measurement,setting,value
"N[C@@H](CC(=O)O)C(=O)O [Asp, aspartate]",Kd,[1],680 µM
N[C@@H](CCC(=O)O)C(=O)O [Glu],Kd,[2],720 µM
"O=C(O)Cc1c[nH]c2ccccc12 [IAA, indole-3-acetic acid]","bacterial lysate glucosylation assay, HPLC-MS/MS",[3],Both UGT84B1 and UGT74D1 recombinant proteins showed the capability to produce IAA-glc and PAA-glc
same,Kd,[2]; read-out: Kd,~60 µM
same,"bacterial lysate glucosylation assay, HPLC-MS/MS",[4],Both UGT84B1 and UGT74D1 recombinant proteins showed the capability to produce IAA-glc and PAA-glc
"O=C(O)Cc1ccccc1 [PAA, phenylacetic acid]",Kd,[5],~60 µM

# Source: PMC12369477 (Journal of Experimental Botany, 2025)
